The results in this text go back to PubChem BioAssay (NCI).

Among the test systems are T-47D breast; NCI-H226 lung; HS 578T breast; PC-3 prostate; HL-60(TB) leukemia; M14 melanoma; NCI/ADR-RES ovarian; KM12 colon; RPMI-8226 leukemia; SNB-19 CNS; NCI-H522 lung.
Holding throughout (test): growth of human tumour cells (NCI), 48 h

In brackets after ≈: the same amount, converted by molar mass.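 Briefly, cells in 96-well plates were exposed to five compound concentrations for 48 h, and endpoints were estimated by linear interpolation. Here, GI50 denotes the concentration required for 50% inhibition of growth. TGI denotes the concentration required for complete inhibition of growth.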

As to `CO/N=C1\CC(NC(=O)C(F)(F)F)c2ccsc21` (stereo not drawn), the TGI in the test on T-47D breast, in the test on NCI-H226 lung, in the test on HS 578T breast, in the test with PC-3 prostate, with HL-60(TB) leukemia and in the test with M14 melanoma was more than 100 µM in each case. In the test on NCI/ADR-RES ovarian, this compound yielded a TGI of more than 100 µM.

On to `COC(=O)C(Cc1cn(C(C)n2cc(CC(NC(C)=O)C(=O)OC)c3ccccc32)c2ccccc12)NC(C)=O` (stereo not drawn), for which the TGI in the test with HS 578T breast, with KM12 colon, in the test on PC-3 prostate, with RPMI-8226 leukemia, with M14 melanoma and with SNB-19 CNS was more than 100 µM each time. This compound came in with a TGI in the test with NCI-H522 lung of more than 100 µM.

For `O=c1oc2ccccc2c(O)c1Cc1ccc(Cc2c(O)c3ccccc3oc2=O)cc1`, the TGI with T-47D breast, with NCI-H226 lung, in the test on HS 578T breast, in the test on PC-3 prostate, in the test with HL-60(TB) leukemia and in the test with M14 melanoma was more than 100 µM in each case. Also, the TGI with NCI/ADR-RES ovarian is more than 100 µM.

`O=C(O)c1nc2ccc(C(F)(F)F)cc2[nH]c1=O`: the TGI in the test with T-47D breast, in the test on NCI-H226 lung, with HS 578T breast, in the test on KM12 colon, in the test on PC-3 prostate and with RPMI-8226 leukemia was more than 100 µM throughout. Moreover, the TGI in the test on HL-60(TB) leukemia, in the test on M14 melanoma, in the test on SNB-19 CNS, in the test on NCI/ADR-RES ovarian and in the test on NCI-H522 lung was more than 100 µM throughout.

Turning to `CCOC(=O)c1csc(NC(=O)C(C)N2CCCC2)n1` (stereo not drawn), the TGI in the test with T-47D breast, with KM12 colon, in the test with PC-3 prostate, with RPMI-8226 leukemia, with M14 melanoma and in the test on SNB-19 CNS was more than 100 µM throughout.

For the compound `CC(=O)NNc1nc(C)c(C(=O)NNC(=O)C(=O)Nc2ccc([N+](=O)[O-])cc2[N+](=O)[O-])s1`, the TGI with NCI-H226 lung, in the test on KM12 colon, in the test on RPMI-8226 leukemia, with HL-60(TB) leukemia, with M14 melanoma and in the test with SNB-19 CNS was more than 100 µM in each case. Also, the TGI in the test with NCI-H522 lung was more than 100 µM.

As to `O=C1NN(C2=NNC3(C(=O)N2)c2ccccc2-c2ccccc23)C(c2ccccc2)=N/C1=C/c1ccc(Cl)cc1`, the GI50 in the test with T-47D breast was 13.4 µg/mL (≈ 24.6 µM); in the test on HS 578T breast it was 47.7 µg/mL (≈ 87.6 µM); in the test on KM12 colon it was 33.4 µg/mL (≈ 61.3 µM); with PC-3 prostate it was 44.7 µg/mL (≈ 82.1 µM); in the test on RPMI-8226 leukemia, 63.6 µg/mL (≈ 117 µM); in the test on HL-60(TB) leukemia, 50.1 µg/mL (≈ 91.9 µM). Besides, the GI50 with M14 melanoma is 59.8 µg/mL (≈ 110 µM); with SNB-19 CNS, 28.3 µg/mL (≈ 52 µM); in the test with NCI/ADR-RES ovarian it was 53.2 µg/mL (≈ 97.7 µM). The TGI with T-47D breast was 149 µg/mL; with HS 578T breast, more than 150 µg/mL; in the test with KM12 colon, 96.2 µg/mL; in the test on PC-3 prostate it was more than 150 µg/mL; in the test with RPMI-8226 leukemia, more than 150 µg/mL; in the test with HL-60(TB) leukemia, more than 150 µg/mL. Besides, the TGI was more than 150 µg/mL in the test on M14 melanoma, 59.9 µg/mL with SNB-19 CNS and more than 150 µg/mL in the test on NCI/ADR-RES ovarian.
